# In patent US20020192274A1, “pH sensitive liposomal drug delivery” (priority 2001, published 2002):
# Assays:
# TNF-α [1] = assay: LPS-induced TNF-α secretion by liver slices after in vivo ASO administration (ELISA); design: species or system rat; conditions: for inhibition of LPS-induced TNF-α production in liver slices: vs empty liposomes
# Protocol: FIG. 4. In vivo efficacy of ASO TJU-2755 (SEQ. ID. NO: 1) against TNF-α in the liver: Effect of duration post-injection. Rats are intravenously injected with pH-sensitive liposomes encapsulated with TJU-2755 (1.5-1.75 mg/Kg body wt). At different times (24, 48 and 72 h) after ASO administration, LPS (50 μg/Kg body weight for 90 minutes) is administered intravenously (i.v.) and the animals are sacrificed 90 min after this challenge. Liver is excised, slices prepared and incubated for 2 h (infra). The amount of TNF-α released into the medium is measured by ELISA. The TNF-α values (bars) from the ASO-treated animals are normalized to control values (control=100) obtained from body weight-matched rats treated similarly except that they are injected with “empty” liposomes. Values indicated are means ±S.E. of (n) determinations. Number of animals, 24 h, n=3; 48 h, n=4, 72 h, n=3. * p<0.05 (vs Control).
# FIG. 5. In vivo efficacy of ASO TJU-2755 (SEQ. ID. NO: 1) against TNF-α in the liver: Effect of multiple injections. Rats are injected with either one or two daily doses of ASO (1.5-1.75 mg/Kg body wt) encapsulated liposomes. […] The amount of TNF-α produced by liver slices is determined as described in legend to FIG. 4 (supra). Bars indicate the amount of TNF-α produced by ASO-treated animals, expressed as percent of controls injected with “empty” liposomes and are the means ±S.E. of n=4 for single dose and n=7 for two doses. *p<0.05, **p<0.01 vs control). The absolute values (Mean) of TNF-α for control and TNF-2755-treated livers (for two daily doses) were 17,748 and 7,500 pg/g liver, respectively.
# Following the in vivo administration of LPS, the production of TNF-α in the liver is assessed by measuring the amount of TNF-α secreted by liver slices. Liver slices are prepared and incubated in culture medium according to the procedure described by Videla and Israel (Videla, L., Israel, Y., Biochem J. 118: 275-281, 1970) with modifications, which include the addition of insulin and fetal calf serum to the culture medium. Briefly, liver slices of uniform thickness (10×4×0.4 mm) are prepared from the mid lobe and initially rinsed in ice-cold William's E medium. The slices (2 slices per dish) are transferred to culture dishes (35 mm) containing 2 ml of fresh medium (90% William's E, 10% fetal calf serum and 2 units of insulin/100 ml) and incubated at 37° C. for 2 h. The amount of TNF-α released into the medium is measured (infra).
# (§1) ELISA is conducted by using Cytoscreen KRC3012 kits (Biosource, Camarillo, Calif.) according to the manufacturer's specifications. Supernatants containing high TNF-α levels are diluted prior to the assay to assure assay results within the standard curve.
# (§2) Rats are injected intravenously with two daily doses (1.5 mg/Kg body wt.) of ASO TJU-2755 (SEQ. ID. NO: 1) encapsulated in pH-stable liposomes and challenged with LPS (50 μg/Kg body wt.) at 48 h post injection. Animals are sacrificed 90 minutes post-LPS. The amount of TNF-α in plasma, as well as that secreted by liver slices, is determined exactly as described for pH-sensitive liposomes (supra) and legends to FIG. 4 and FIG. 5. Body-weight matched rats injected with two doses of “empty” liposomes and challenged similarly with LPS constituted the control group. All TNF-α values are normalized to the corresponding control groups (=100). Values are expressed as mean ±S.E of (n) determinations.
# TNF-α [2] = conditions: primary Kupffer cells ex vivo; cited from earlier work
# TNF-α mRNA = assay: Tissue levels of TNF-α mRNA by Northern hybridization; format: in vivo, rat; conditions: pH-sensitive liposomes, two daily doses 1.5 mg/Kg, LPS 48 h post ASO, normalized to GAPDH, vs empty liposomes
# Protocol: FIG. 8. Effect of ASO TJU-2755 (SEQ. ID. NO: 1) in vivo on TNF-α mRNA. Rats are injected with two daily doses (1.5 mg/Kg body wt.) of ASO and injected with LPS (50 μg/Kg body wt.) 48 h post ASO administration as described in legend to FIG. 5. Liver (n=5) and spleen (n=4) are processed for the extraction of mRNA fractions. Steady-state levels of TNF-α mRNA are determined by Northern hybridization and normalized to the levels of GAPDH mRNA. Bars indicate mRNA (Means ±S.E) of (n) values from ASO-treated samples, expressed as percent of control values derived from rats treated with “empty” liposomes. *p<0.05, **p<0.01 (Vs control).
# Liver and spleen samples (≈100 mg) are homogenized in 3 volumes of cold TRI Reagent (Molecular Research Center, Inc.). […] The intactness of total RNA is measured by agarose (1%) gel electrophoresis by visualizing the intactness of ribosomal RNA (28S, 18S). […] The purity of the isolated mRNA is monitored by analyzing the absorption ratios of 260 to 280 (nm), which always ranged from 1.8-2.0.
# Samples of mRNA are run on 1% agarose gel electrophoresis, vacuum transferred (BIORAD Model 785 Vacuum Blotter) onto a nitrocellulose membrane (Amersham), and crosslinked (Statagene UV Stratalinker 2400). […] The autoradiograms are quantitated using an ultrascan laser densitometer. […]
# TNF-α [3] = assay: Plasma TNF-α after LPS challenge following in vivo ASO administration (ELISA); design: species or system rat
# Protocol: FIG. 6. […] Rats are injected with either one (n=3), two (n=8) or three (n=1) daily doses of TJU-2755 (SEQ. ID. NO: 1) and administered LPS (50 μg/Kg body wt.) at 48 h after the last injection of the antisense formulation as described in legend to FIG. 5. […] Plasma TNF-α is determined by ELISA. Bars indicate values from ASO-treated animals expressed as percent of corresponding controls (animals dosed with “empty liposomes”) and are the means ±S.E of (n) determinations. ***p<0.001 between rats injected two daily doses of ASO and controls. The absolute (Mean) values of TNF-α for control and TJU-2755 (SEQ. ID. NO: 1)-treated plasma samples (for two daily doses) were 34,375 and 9,731 (pg/ml plasma) respectively.
# as §1, §2
# [4] = pH-stable liposomes, two daily doses 1.5 mg/Kg i.v., LPS at 48 h, mean ± S.E
substance,measurement,setting,value
"TJU-2755: phosphorothioate 21-mer antisense oligonucleotide 5′-TGATCCACTCCCCCCTCCACT-3′, complementary to the 3′-untranslated region of rat TNF-α mRNA (all phosphorothioate, sugars by position and methylation of C not given here)",inhibitory effect on LPS-induced TNF-α production,"TNF-α [1]; ASO delivered with pH-stable liposomes (liver and plasma, Table 1)",no inhibitory effect
same,inhibition of LPS-induced TNF-α production in liver slices,"TNF-α [1]; pH-sensitive liposomes, single i.v. dose, LPS 48 h post injection",~30%
same,inhibition of LPS-induced TNF-α production in liver slices,"TNF-α [1]; pH-sensitive liposomes, two daily doses, LPS 48 h after last injection",50%
same,"TNF-α produced by liver slices, absolute mean","TNF-α [1]; pH-sensitive liposomes, two daily doses, control 17,748","7,500 pg/g liver"
same,"TNF-α (%) liver, normalized to control (=100)",TNF-α [1]; [4],103 ± 23%
same,inhibition of LPS-stimulated TNF-α production,TNF-α [2],> 90%
same,"reduction in TNF-α mRNA levels, spleen",TNF-α mRNA,36.5%
same,"reduction in steady-state levels of TNF-α mRNA, liver",TNF-α mRNA,35%
same,reduction in plasma TNF-α levels,"TNF-α [3]; pH-sensitive liposomes, 2 doses, LPS 48 h after last injection, vs empty liposomes",68%
same,"plasma TNF-α, absolute mean","TNF-α [3]; pH-sensitive liposomes, two daily doses, control 34,375","9,731 pg/ml plasma"
same,"TNF-α (%) plasma, normalized to control (=100)",TNF-α [3]; [4],93 ± 28%
